US7572823B2, “Heteroaryl carboxamide compounds” (Hoffmann-La Roche Inc., priority 2006, dated 2009)

target: T1, cholesteryl ester transfer protein (CETP) (Homo sapiens, UniProt P11597); assay: CETP inhibition SPA assay in the presence of plasma (CETP source: human lipoprotein-deprived serum); format: biochemical; conditions: CETP source human lipoprotein-deprived serum (LPDS), radiolabeled cholesteryl ester transfer from HDL donor to biotin-labeled LDL acceptor
T1 construct: the source of CETP was human lipoprotein-deprived serum (LPDS); from tissue; host or cells: human lipoprotein-deprived serum (LPDS)
T1 sequence (P11597 18-493): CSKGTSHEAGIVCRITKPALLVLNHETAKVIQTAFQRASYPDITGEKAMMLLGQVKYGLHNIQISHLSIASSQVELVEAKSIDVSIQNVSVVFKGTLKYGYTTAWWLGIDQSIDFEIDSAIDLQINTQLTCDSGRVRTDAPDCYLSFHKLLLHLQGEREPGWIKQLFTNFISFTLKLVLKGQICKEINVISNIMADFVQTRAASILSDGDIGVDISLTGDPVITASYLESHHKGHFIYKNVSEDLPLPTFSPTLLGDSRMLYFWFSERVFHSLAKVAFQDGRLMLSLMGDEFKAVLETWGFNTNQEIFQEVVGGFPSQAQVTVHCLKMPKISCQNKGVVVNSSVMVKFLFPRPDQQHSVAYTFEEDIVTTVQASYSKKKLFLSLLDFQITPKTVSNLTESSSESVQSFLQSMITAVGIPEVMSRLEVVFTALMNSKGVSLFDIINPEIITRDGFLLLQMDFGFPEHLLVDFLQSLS
Experimental: Activity of CETP inhibitors was determined using a buffer assay system. Partially purified CETP transferred radiolabeled cholesteryl ester from HDL donor particles to biotin-labeled LDL acceptor particles. The reaction was stopped by addition of streptavidin-coupled scintillation proximity assay (SPA) beads. These beads captured the biotinylated acceptor particles and transferred radioactivity was measured. The assay system was purchased and performed according to manufacturer's recommendations (Amersham Biosciences). Inhibitory activity of compounds was determined as percentage of positive control activity containing CETP together with donor and acceptor particles. Serial dilution of compounds was performed in order to determine the IC50 values. Activity of the compounds was subsequently measured in the presence of plasma using the same assay as described above except that the source of CETP was human lipoprotein-deprived serum (LPDS). Inhibitory activity of compounds was determined as percentage of positive control activity containing all the assay components except compound. Serial dilution of compounds was performed in order to determine the IC50 values.

IC50 [nM] | Compound
16 | C[Si](C)(C)c1ccc(CN(CCc2cccc(C(F)(F)F)c2)C(=O)c2c(F)c(Cl)cc3cc[nH]c23)cc1 [Example 3, 5-Chloro-6-fluoro-1H-indole-7-carboxylic acid [2-(3-trifluoromethyl-phenyl)-ethyl]-(4-trimethylsilanyl-benzyl)-amide]
21 | C[Si](C)(C)c1ccc(CN(CCc2cccc(OC(F)(F)F)c2)C(=O)c2c(F)c(Cl)cc3cc[nH]c23)cc1 [Example 1, 5-Chloro-6-fluoro-1H-indole-7-carboxylic acid [2-(3-trifluoromethoxy-phenyl)-ethyl]-(4-trimethylsilanyl-benzyl)-amide]
44 | CC(C)[Si](C)(C)c1ccc(CN(CCc2cccc(C(F)(F)F)c2)C(=O)c2c(F)c(Cl)cc3cc[nH]c23)cc1 [Example 6, 5-Chloro-6-fluoro-1H-indole-7-carboxylic Acid [4-(isopropyl-dimethyl-silanyl)-benzyl]-[2-(3-trifluoromethyl-phenyl)-ethyl]-amide]
